# Marks after values point to notes of the source that are not given here. Starred links: 1 amine or outer side, 2 acyl side, 3 side chain; linkers in the order of their positions; H or OH if unused. Positions of bridges follow the written chain, without caps; N, C: chain ends. Non-standard residues stand in square brackets, D forms with d. Residues, ends and D or L forms follow the SMILES beside them. *: point of attachment. X1 = CC[C@H](C)[C@@H](N[*:1])[C@@H](O)CC(=O)O[C@H](C(=O)[C@H](C)C(=O)[*:2])C(C)C; NMeY = CN[C@@H](Cc1ccc(O)cc1)C(=O)O; dNMeL = CN[C@H](CC(C)C)C(=O)O; Pyruvoyl = CC(=O)C(=O)*
# Assays:
# lewis lung carcinomas = conditions: cited from earlier work
# NP9 peritoneal implants = assay: NP9 peritoneal metastases after orthotopic implantation; type: in vivo, Nu/Nu Swiss mice
# From the text: (§1) Aplidine is a new cyclic depsipeptide with anticancer activity in vitro and in vivo in different tumour types, but it has not been tested in pancreatic carcinoma. Nevertheless, this pathology has a poor prognosis because of difficult early diagnosis, aggressiveness and lack of effective systemic therapies. Most patients die of metastases present at diagnosis. We compared the antitumour effect of aplidine against 2 human pancreatic carcinomas, NP9 and NP18, using orthotopic (ORP) and subcutaneous (SC) tumour implantation models. […] METHODS: Groups of ten male Nu/Nu Swiss mice (4 wk old) were treated with vehicle or aplidine. To evaluate primary tumour response, ip aplidine was given, starting 2 weeks (wk) after implantation, at 0.8 mg/kg q4d for 4 wk (NP9) or at 0.8 mg/kg q4d for 6 wk, ceasing treatment the 4th and 5th wk (NP18). To evaluate the response of NP9 metastasis aplidine regime was 0.8 mg/kg q4d per 3 doses, starting 4 weeks after implantation. We measured final tumour weight, macroscopic viability (viable cortex/total tumour weight), microscopic necrosis, apoptotic induction and signal transduction. […] This effect was due to apoptotic induction leading to a reduced number of viable cells in both tumours. Apoptotic induction on NP18 was associated with PARP cleavage and reduced AKT activation, only in ORT-treated tumours. aplidine induced a decrease in cyclins B1 and D1 and FAK expression only in ORT NP9-treated tumours. […] CONCLUSIONS: The use of an ORT implantation model permitted the observation of the antitumour effect of aplidine on primary tumours and metastases of human pancreatic carcinomas. aplidine altered apoptotic and proliferative pathways, which could explain its antitumour effect.
# (§2) We used two human pancreatic carcinomas (NP18 and NP9) perpetuated as orthotopic xenografts in nude mice. NP9 produce an extensive peritoneal dissemination 4-5 weeks after implantation (metastatic). We implanted these tumours in four week-old male Nu/Nu Swiss mice (Charles River), housed in autoclaved cages and provided y-ray sterilized bedding and food. They were anesthetized with 2,2,2-tribromoethanol (Sigma-Aldrich) and 10 mg fragments of each tumour from previous passages were implanted orthotopically (ORT, at the pancreas). Xenografted animals were randomly distributed in control (n=10) and experimental (n=10) groups just before treatment. We excluded animals bearing non palpable tumours after ORT implantation, or with tumour volumes lower than 0.13 cm^3 (0.5 cm in diameter). Treatment schedule depended on tumour growth rate. In the fast growing NP9 tumour, two schedules of treatment were used. In one, treatment started two weeks after tumour implantation, before peritoneal dissemination had occurred. Each animal in the experimental group received ip administrations of aplidine at a dose of 0.8 mg/Kg q4d per four weeks. In the other schedule, treatment started four weeks after tumour implantation, once peritoneal dissemination had occurred, with a regime of aplidine of 0.8 mg/Kg q4d per three doses. The existence of macroscopically visible implants was confirmed one day before the treatment begun, by the sacrifice of one extra animal. In the NP18 tumour, treatment started 4 weeks after tumour implantation and the schedule of aplidine was 0.8 mg/Kg q4d ip for 4 weeks, ceasing treatment for two weeks, and continuing with 0.8 mg/Kg q4d ip for two additional weeks. The animals in the corresponding control groups received i.p. administrations of vehicle following the same schedule. After implantation, and during treatment, mice were inspected twice a week and weighted weekly to monitor for compound toxicity.
# (§3) At the end of treatment, animals were euthanized and dissemination recorded. Primary tumours were excised and weighted in all groups. Tumor aliquots were frozen down in liquid nitrogen or fixed in formaline. We counted the number of peritoneal implants in each animal and took samples for histological and molecular analysis. […]
# [1] = Stability of aplidine solution and lyophilised dosage form; type: physicochemical
# Method: In a currently preferred embodiment freeze-drying was performed from a […] solution of aplidine in 40% (v/v) tert-butanol in Water for Injection (Wfl) containing 25 mg/mL D-mannitol as bulking agent. […] Both reconstituted product and dilutions (up to 1:100 v/v) of the reconstituted product with normal saline appeared to be stable for at least 24 hours after preparation.
# [2] = tested on: NP9 human pancreatic carcinoma; assay: NP9 human pancreatic carcinoma xenograft, primary tumour; type: in vivo, Nu/Nu Swiss mice; conditions: for Solid tumour weight (g) / Total tumour weight (g): 0.8 mg/kg q4d ip
# From the text: as §1, §2, §3
# pancreatic tumour = conditions: 4 patients with pancreatic tumour, phase I; cited from earlier work
# ornithine decarboxylase = target: T1, ornithine decarboxylase (Homo sapiens, UniProt P11926); conditions: all three cell lines; cited from earlier work
# T1 construct: endogenous in cells; host or cells: CT-1, CT-2 and HT-29 colon cell lines
# T1 sequence (P11926 1-461): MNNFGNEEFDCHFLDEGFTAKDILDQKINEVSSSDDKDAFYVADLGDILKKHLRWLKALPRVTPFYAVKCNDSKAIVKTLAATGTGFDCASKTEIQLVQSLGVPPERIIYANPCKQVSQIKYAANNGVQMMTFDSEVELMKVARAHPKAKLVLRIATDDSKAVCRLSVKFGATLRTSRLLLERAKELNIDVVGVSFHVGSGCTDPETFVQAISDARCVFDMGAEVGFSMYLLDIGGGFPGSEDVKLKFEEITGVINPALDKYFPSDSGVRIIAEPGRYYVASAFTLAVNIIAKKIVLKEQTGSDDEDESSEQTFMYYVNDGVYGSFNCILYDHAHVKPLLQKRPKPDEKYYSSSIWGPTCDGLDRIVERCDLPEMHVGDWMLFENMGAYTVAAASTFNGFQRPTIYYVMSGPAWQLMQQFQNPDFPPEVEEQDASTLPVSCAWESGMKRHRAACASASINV
# human cancer xenografts = conditions: cited from earlier work
# [3] = tested on: CT-1, CT-2 and HT-29 cell lines; conditions: CT-1, CT-2, HT-29; cited from earlier work
# [4] = tested on: P388 leukaemia and B 16 melanoma; conditions: mouse, in vivo; cited from earlier work
# [5] = tested on: Non-small cell lung cancer, breast cancer and melanoma cell lines; conditions: continuous exposure; cited from earlier work
# [6] = tested on: NP18 human pancreatic carcinoma; assay: NP18 human pancreatic carcinoma xenograft, primary tumour; type: in vivo, Nu/Nu Swiss mice; conditions: for Total tumour weight (g): 0.8 mg/kg q4d ip
# From the text: as §1, §2, §3
# MDA-MB231 = conditions: aplidine 50 nmol/L; cited from earlier work
# gastric tumours = conditions: 1.25 mg/kg; cited from earlier work
# MCF-7 = conditions: aplidine 50 nmol/L; cited from earlier work
# prostate tumour = conditions: 1.25 mg/kg; cited from earlier work
smiles,measurement,setting,value
CC[C@H](C)[C@H]1NC(=O)[C@@H](NC(=O)[C@@H](CC(C)C)N(C)C(=O)[C@@H]2CCCN2C(=O)C(C)=O)[C@@H](C)OC(=O)[C@H](Cc2ccc(OC)cc2)N(C)C(=O)[C@@H]2CCCN2C(=O)[C@H](CC(C)C)NC(=O)[C@@H](C)C(=O)[C@H](C(C)C)OC(=O)C[C@@H]1O [aplidine] (Pyruvoyl-P[dNMeL]T[X1]LP[NMeY](Me); ester 3-C),activity in SC implanted lewis lung carcinomas,lewis lung carcinomas,active
same,apoptotic nuclei per treated implant (Hoescht),NP9 peritoneal implants; established metastases,3-6
same,Caspase-3 activation and PARP cleavage in metastases,"NP9 peritoneal implants; mouse, in vivo",No activation of Caspase-3 nor PARP cleavage
same,necrosis in peritoneal implants (H&E),"NP9 peritoneal implants; mouse, in vivo",did not contain necrotic areas
same,peritoneal implants,"NP9 peritoneal implants; treatment initiated before dissemination, 0.8 mg/Kg q4d four weeks",no peritoneal implants were observed in any animal
same,diameter of peritoneal implants,NP9 peritoneal implants; treatment started once metastases macroscopically evident,less than 1 mm
same,number of peritoneal implants per animal,"NP9 peritoneal implants; treatment started once metastases macroscopically evident, 0.8 mg/Kg q4d three doses",7-20
same,ERK activation in metastases,NP9 peritoneal implants; vs control metastases,lower ERK activation
same,degradation under stress testing,[1],substantial degradation
same,"active forms of caspases 3, 7 or 8 (Western blot)",[2]; NP9,"No active forms of caspases 3, 7 or 8 were detected"
same,FAK expression (Western blot),"[2]; NP9, ORT",downregulation of FAK
same,cyclin B1 and cyclin D1 expression (Western blot),"[2]; NP9, ORT",decreased expression of cyclin B1 and cyclin D1
same,"macroscopic appearance, invasion by primary tumour","[2]; NP9, ORT",did not invade other organs of the peritoneum
same,"foci of non-viable/necrotic cells, share of each tumour","[2]; NP9, ORT treated",75-100%
same,Solid tumour weight (g),"[2]; NP9, ORT",3.04 ± 1.04^f g
same,Total tumour weight (g),"[2]; NP9, ORT",3.72 ± 1.09^b g
same,Ki67,"[2]; NP9, ORT, viable tissue",downregulation
same,apoptosis (Hoescht nuclear staining),"[2]; NP9, ORT, viable tissue",significantly increased apoptosis
same,cyclin B1 and cyclin D1 levels (Western blot),"[2]; NP9, SC",no differences in cyclin B1 or cyclin D1 levels
same,Solid tumour weight (g),"[2]; NP9, SC",0.87 ± 0.44^e g
same,Total tumour weight (g),"[2]; NP9, SC",1.56 ± 0.8^a g
same,difference in total or solid tumour weight vs control,"[2]; NP9, any site",no significant differences
same,ERK activation (Western blot),"[2]; NP9, both tumour sites",ERK activation was unaltered
same,tumour response of patients,pancreatic tumour,did not respond
same,ornithine decarboxylase activity,ornithine decarboxylase,decreased ornithine decarboxylase activity
same,treated/control (T/C) tumour ratio,human cancer xenografts; 2.1 mg/kg,9%
same,maximum tolerated dose,human cancer xenografts; mice bearing human cancer xenografts,2.1 mg/kg
same,cytotoxic activity,[3],dose-dependent cytotoxic activity
same,activity against implanted tumours,[4],active
same,optimal dose,[4],160 micro/kg
same,concentration to which cell lines were sensitive,[5],>= 0.001 micromol/L
same,size or macroscopic appearance of primary tumour,[6]; NP18,did not significantly change
same,AKT activation (Western blot),"[6]; NP18, ORT",Decrease AKT activation
same,PARP cleavage (Western blot),"[6]; NP18, ORT",PARP cleavage
same,"caspases 3, 7 and 8 (Western blot)","[6]; NP18, ORT","activation of caspases 3, 7 and 8"
same,microscopic necrosis (H&E),"[6]; NP18, ORT treated vs ORT control",significantly higher level of necrosis
same,Total tumour weight (g),"[6]; NP18, ORT",9.34 ± 1.3^d g
same,apoptosis (Hoescht nuclear staining),"[6]; NP18, ORT, viable tissue",significantly increased apoptosis
same,"AKT, caspases 3, 7, 8 and PARP regulation (Western blot)","[6]; NP18, SC",did not alter the regulation of any of these proteins
same,Total tumour weight (g),"[6]; NP18, SC",15.5 ± 5.3^c g
same,ERK activation (Western blot),"[6]; NP18, any site",No differences in ERK activation
same,difference in total or solid tumour weight vs control,"[6]; NP18, any site",no significant differences
same,inhibition of growth,MDA-MB231,17%
same,T/C,gastric tumours,14%
same,inhibition of growth,MCF-7,47%
same,T/C,prostate tumour,25%
"CC[C@H](C)[C@H]1NC(=O)[C@@H](NC(=O)[C@@H](CC(C)C)N(C)C(=O)[C@@H]2CCCN2C(=O)C(C)O)[C@@H](C)OC(=O)[C@H](Cc2ccc(OC)cc2)N(C)C(=O)[C@@H]2CCCN2C(=O)[C@H](CC(C)C)NC(=O)[C@@H](C)C(=O)[C@H](C(C)C)OC(=O)C[C@@H]1O (some centres unmarked) [didemnin B, reference compound]",activity in SC implanted lewis lung carcinomas,lewis lung carcinomas,"Unlike didemnin B, aplidine was active"
